Here are results for nine compounds from US10246444B2, “1,2-dithiolane and dithiol compounds useful in treating mutant EGFR-mediated diseases and conditions” (Sabila Biosciences LLC, priority 2017, dated 2019).

Test [1] addresses kinase (Homo sapiens, UniProt Q15303). Nature of the test: Radioisotope filter binding assay (33P-ATP kinase activity, IC50). Format: biochemical. The conditions noted are these: HER 4, read-out: IC50 Activity level HER 4. As for the experimental part:
(§1) Radioisotope Filter Binding Assay: In this assay format, it directly detects the true product without the use of modified substrates or coupling enzymes (Uitdehaag, J. C. et al. Br. J. Pharmacol. 2012, 166, 858-876; Hastie, C. J. et al. Nat. Protoc. 2006, 1, 968-971) according to equation 1.
(§2) The protocol calls for test compound of the invention to be incubated with kinase, substrate, cofactors, and radio-isotope-labeled ATP (^33P-gamma-ATP). The reaction mixtures are then spotted onto filter papers which bind the radioisotope labeled catalytic product. Unreacted phosphate is removed via washing. The reagents used include base reaction buffer; 20 mM Hepes (pH 7.5), 10 mM MgCl2, 1 mM EGTA, 0.02% Brij35, 0.02 mg/ml BSA, 0.1 mM Na3VO4, 2 mM DTT, 1% DMSO. The reaction procedure include the following steps: (1) prepare indicated substrate in freshly prepared base reaction buffer, (2) deliver any required cofactors to the substrate solution above, (3) deliver indicated kinase into the substrate solution and gently mix, (4) deliver compounds in DMSO into the kinase reaction mixture by Acoustic technology (Echo550; nanoliter range), incubate for 20 minutes at room temperature, (5) deliver ^33P-ATP (specific activity 10 μCi/μL) into the reaction mixture to initiate the reaction, (6) incubate kinase reaction for 2 hours at room temperature, (7) reactions are spotted onto P81 ion exchange paper, (8) detect kinase activity by filter-binding method.

The target in a further test is EGFR WT (Homo sapiens (Human), UniProt P00533). Nature of the test: KinaseSeeker rabbit reticulocyte lysate competition binding assay (IC50).
Test [2] concerns the target kinase (Homo sapiens, UniProt P00533). Nature of the test: Radioisotope filter binding assay (33P-ATP kinase activity, IC50). Format: biochemical. Conditions: EGFR WT, read-out: IC50 Activity level EGFR WT. On the procedure:
as §1, §2

The target in test [3] is kinase (Homo sapiens, UniProt P00533, DEL746-750). Described as above. The conditions noted are these: EGFR E746-A750del, read-out: IC50 Activity level EGFR E746-A750del. Format: biochemical. As for the experimental part:
as §1, §2

Test [4] has as its target kinase (Homo sapiens, UniProt P00533, L858R). Described as above. Format: biochemical. Conditions: EGFR L858R, read-out: IC50 Activity level EGFR L858R. As for the experimental part:
as §1, §2

For test [5], the target named is T1, EGFR (L858R) (Homo sapiens (Human), UniProt P00533, L858R). Nature of the test: KinaseSeeker rabbit reticulocyte lysate competition binding assay (IC50).
In test [6] the target is various mutant EGF receptors (Homo sapiens, UniProt P00533, DEL747-751/INS746S). In words: KINOMEscan competition binding assay (Kd), Example 40 in various mutant EGF receptors (Table 17).
The target of test [7] is various mutant EGF receptors (Homo sapiens, UniProt P00533, DEL747-752/P753S). Described as above.
Test [8] deals with various mutant EGF receptors (Homo sapiens, UniProt P00533, A750P/DEL747-749). Described as above.
The target in test [9] is various mutant EGF receptors (Homo sapiens, UniProt P00533, G719S). The test is described as above.
Test [10] concerns the target various mutant EGF receptors (Homo sapiens, UniProt P00533, L861Q). The test is described as above.
Test [11] has as its target various mutant EGF receptors (Homo sapiens, UniProt P00533, G719C). The description is as above.
The next test addresses HER2 (Homo sapiens (Human), UniProt P04626). In words: KinaseSeeker rabbit reticulocyte lysate competition binding assay (IC50).
The next test has as its target EGFR E746-A750del (Homo sapiens (Human), UniProt P00533, DEL746-750). In words: KINOMEscan competition binding assay (Kd). The conditions noted are these: KINOMEscan binding constant; read-out: Kd Activity Level (EGFR E746-A750del).
The target in the next test is EGFR S752-I759del (Homo sapiens (Human), UniProt P00533, DEL752-759). Nature of the test: KINOMEscan competition binding assay (Kd). Conditions: KINOMEscan binding constant; read-out: Kd Activity Level (EGFR S752-I759del).
Test [12] has as its target kinase. Nature of the test: Radioisotope filter binding assay (33P-ATP kinase activity, IC50). It is filed as biochemical. The conditions noted are these: HER 2, read-out: IC50 Activity level HER 2. On the procedure: as §1, §2
The next test concerns the target EGFR WT (wild type EGFR) (Homo sapiens (Human), UniProt P00533). Nature of the test: KINOMEscan competition binding assay (Kd). Conditions: read-out: Kd Activity Level (EGFR WT).
The target in a further test is EGFR L858R/T790M (Homo sapiens (Human), UniProt P00533, L858R/T790M). In words: KINOMEscan competition binding assay (Kd). The conditions noted are these: KINOMEscan binding constant; read-out: Kd Activity Level (EGFR L858R/T790M).
In test [13] the target is T1, EGFR (L858R). Nature of the test: KINOMEscan competition binding assay (Kd). The conditions noted are these: read-out: Kd Activity Level (EGFR L858R).

EGFR E746-A750del, sequence (P00533 other isoform, or with tags, fused parts or gaps del E746-A750): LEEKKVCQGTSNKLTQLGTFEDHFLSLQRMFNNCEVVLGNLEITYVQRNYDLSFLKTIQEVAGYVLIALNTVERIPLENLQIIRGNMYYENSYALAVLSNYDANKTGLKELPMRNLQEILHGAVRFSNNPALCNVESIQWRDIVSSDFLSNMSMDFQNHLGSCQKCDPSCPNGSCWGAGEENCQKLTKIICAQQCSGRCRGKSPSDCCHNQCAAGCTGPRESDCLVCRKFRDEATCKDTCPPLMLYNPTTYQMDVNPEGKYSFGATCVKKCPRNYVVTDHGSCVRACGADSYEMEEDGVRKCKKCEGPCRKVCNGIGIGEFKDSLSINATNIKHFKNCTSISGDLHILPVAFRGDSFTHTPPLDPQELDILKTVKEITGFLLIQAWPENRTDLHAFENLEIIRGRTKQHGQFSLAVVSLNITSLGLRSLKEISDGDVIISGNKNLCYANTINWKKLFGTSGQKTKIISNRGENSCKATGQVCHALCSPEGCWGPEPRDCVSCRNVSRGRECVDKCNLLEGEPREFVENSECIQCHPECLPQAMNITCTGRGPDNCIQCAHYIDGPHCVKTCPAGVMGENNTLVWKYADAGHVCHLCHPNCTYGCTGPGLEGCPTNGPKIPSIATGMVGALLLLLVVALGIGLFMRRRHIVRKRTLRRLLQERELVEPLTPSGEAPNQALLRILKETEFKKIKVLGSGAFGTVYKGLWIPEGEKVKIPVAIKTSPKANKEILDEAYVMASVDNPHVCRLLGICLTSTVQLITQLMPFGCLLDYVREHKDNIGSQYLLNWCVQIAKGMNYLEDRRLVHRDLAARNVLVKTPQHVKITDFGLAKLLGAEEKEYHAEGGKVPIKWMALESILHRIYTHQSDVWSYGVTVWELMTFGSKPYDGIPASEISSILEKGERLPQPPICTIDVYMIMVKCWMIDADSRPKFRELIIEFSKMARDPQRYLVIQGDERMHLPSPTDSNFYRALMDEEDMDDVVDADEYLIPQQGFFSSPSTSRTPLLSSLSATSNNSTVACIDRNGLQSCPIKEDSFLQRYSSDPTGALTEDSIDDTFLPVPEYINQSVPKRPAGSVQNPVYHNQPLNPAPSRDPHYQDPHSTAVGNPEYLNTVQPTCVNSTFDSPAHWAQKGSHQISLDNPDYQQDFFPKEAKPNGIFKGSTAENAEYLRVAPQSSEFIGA
kinase (Homo sapiens, UniProt P00533, DEL746-750), sequence (P00533 with tags, fused parts or gaps DEL746-750 limits assumed): as the sequence (P00533 other isoform, or with tags, fused parts or gaps del E746-A750) above
kinase (Homo sapiens, UniProt Q15303), sequence (Q15303 26-1308 limits assumed): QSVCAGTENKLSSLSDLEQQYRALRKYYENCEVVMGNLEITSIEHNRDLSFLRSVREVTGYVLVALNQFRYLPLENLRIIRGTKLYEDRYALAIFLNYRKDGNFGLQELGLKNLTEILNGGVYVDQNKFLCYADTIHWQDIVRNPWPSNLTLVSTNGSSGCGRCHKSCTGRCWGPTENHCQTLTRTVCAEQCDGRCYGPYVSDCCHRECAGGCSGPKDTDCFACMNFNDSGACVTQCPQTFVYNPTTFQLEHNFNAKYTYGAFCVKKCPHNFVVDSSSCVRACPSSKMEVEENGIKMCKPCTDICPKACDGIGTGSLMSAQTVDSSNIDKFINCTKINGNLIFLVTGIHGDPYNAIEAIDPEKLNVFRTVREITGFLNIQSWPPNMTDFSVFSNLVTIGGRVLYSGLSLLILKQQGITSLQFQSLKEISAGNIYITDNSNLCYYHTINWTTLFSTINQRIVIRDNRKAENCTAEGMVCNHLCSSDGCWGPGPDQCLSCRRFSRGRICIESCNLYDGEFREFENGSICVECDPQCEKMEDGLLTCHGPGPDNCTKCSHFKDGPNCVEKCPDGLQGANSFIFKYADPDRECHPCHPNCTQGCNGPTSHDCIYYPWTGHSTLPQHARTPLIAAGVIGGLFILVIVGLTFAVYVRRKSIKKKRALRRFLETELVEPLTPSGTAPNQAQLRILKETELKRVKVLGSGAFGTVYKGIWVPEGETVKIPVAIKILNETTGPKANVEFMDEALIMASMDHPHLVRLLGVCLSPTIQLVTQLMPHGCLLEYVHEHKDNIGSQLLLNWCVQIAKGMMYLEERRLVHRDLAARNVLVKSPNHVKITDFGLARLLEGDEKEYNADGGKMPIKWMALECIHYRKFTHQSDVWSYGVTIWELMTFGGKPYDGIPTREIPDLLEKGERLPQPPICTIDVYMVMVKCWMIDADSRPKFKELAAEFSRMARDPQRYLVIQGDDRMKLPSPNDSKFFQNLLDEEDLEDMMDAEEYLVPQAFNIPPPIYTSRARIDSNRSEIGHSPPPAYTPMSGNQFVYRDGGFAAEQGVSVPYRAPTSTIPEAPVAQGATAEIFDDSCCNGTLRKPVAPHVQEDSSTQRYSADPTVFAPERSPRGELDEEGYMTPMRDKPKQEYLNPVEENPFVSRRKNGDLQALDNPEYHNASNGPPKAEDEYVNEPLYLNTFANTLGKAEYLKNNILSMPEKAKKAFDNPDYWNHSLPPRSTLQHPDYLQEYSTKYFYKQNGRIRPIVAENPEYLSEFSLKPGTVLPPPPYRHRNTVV
T1 sequence (P00533 25-1210 L858R): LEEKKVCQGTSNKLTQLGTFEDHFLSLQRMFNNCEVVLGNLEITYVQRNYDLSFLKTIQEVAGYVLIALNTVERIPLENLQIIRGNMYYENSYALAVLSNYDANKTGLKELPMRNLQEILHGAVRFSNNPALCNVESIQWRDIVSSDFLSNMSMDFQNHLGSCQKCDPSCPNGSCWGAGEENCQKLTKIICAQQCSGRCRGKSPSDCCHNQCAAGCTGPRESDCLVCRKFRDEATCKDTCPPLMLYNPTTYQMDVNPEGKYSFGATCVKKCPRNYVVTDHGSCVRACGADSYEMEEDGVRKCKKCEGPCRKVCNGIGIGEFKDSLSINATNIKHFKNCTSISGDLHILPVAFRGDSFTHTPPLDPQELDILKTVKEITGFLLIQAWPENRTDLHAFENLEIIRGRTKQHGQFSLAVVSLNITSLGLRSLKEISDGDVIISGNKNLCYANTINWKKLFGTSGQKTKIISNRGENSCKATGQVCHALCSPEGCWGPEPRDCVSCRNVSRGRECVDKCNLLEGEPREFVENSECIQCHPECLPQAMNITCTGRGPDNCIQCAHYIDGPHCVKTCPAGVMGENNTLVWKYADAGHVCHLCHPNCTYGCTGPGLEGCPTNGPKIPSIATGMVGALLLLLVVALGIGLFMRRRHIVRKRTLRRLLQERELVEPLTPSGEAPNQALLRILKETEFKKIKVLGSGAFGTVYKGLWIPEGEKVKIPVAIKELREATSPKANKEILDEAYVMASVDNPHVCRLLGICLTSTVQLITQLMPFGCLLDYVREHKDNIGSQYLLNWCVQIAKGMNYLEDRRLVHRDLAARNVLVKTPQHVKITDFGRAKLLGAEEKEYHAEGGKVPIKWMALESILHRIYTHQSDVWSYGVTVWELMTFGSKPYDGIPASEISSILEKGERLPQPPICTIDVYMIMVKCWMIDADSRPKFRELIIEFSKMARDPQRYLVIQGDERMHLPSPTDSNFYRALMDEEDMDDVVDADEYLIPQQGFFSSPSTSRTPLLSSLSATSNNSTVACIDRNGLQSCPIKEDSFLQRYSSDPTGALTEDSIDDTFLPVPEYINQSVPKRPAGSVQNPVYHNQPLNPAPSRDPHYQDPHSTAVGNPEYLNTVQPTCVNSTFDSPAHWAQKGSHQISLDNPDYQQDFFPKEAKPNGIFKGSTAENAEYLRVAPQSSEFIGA

In the case of `N#Cc1cnc2ccc(NC(=O)C3CSSC3)cc2c1Nc1ccc(OCc2cccc(F)c2)c(Cl)c1` [Example 61, N-(4-((3-Chloro-4-((3-fluorobenzyl)oxy)phenyl)amino)-3-cyanoquinolin-6-yl)-1,2-dithiolane-4-carboxamide], on kinase [1], the half-inhibitory concentration (IC50) (as a rule, the concentration needed to halve the response being measured) is 100 to 999 nM.

For `N#Cc1cnc2cc(OC[C@H](O)CO)c(NC(=O)C3CSSC3)cc2c1Nc1ccc(OCc2cccc(F)c2)c(Cl)c1` [Example 95, (R)—N-(4-((3-Chloro-4-((3-fluorobenzyl)oxy)phenyl)amino)-3-cyano-7-(2,3-dihydroxypropoxy)quinolin-6-yl)-1,2-dithiolane-4-carboxamide], the IC50 was 100 to 999 nM at EGFR WT; 1 to 99 nM on kinase [2]; 1000 to 10000 nM on kinase [3]; 100 to 999 nM at kinase [4]; 1 to 99 nM on EGFR (L858R) [5].

With `CCOc1cc2ncc(C#N)c(Nc3ccc(OCc4cccc(F)c4)c(Cl)c3)c2cc1NC(=O)CC1CCSS1` (centres unmarked) [Example 40], the Kd in test [6], in [7], in test [8], in test [9], in [10] and in [11] was 1 to 99 nM in each case. For the same compound, the Kd at EGFR E746-A750del and on EGFR S752-I759del was 1 to 99 nM in each case. The 50% inhibitory concentration (IC50) at EGFR WT lay in the range of 100 to 999 nM; on HER2, 100 to 999 nM; on EGFR (L858R) [5] it was 1 to 99 nM.

Regarding `N#Cc1cnc2ccc(NC(=O)CC3CCSS3)cc2c1Nc1ccc(OCc2cccc(F)c2)c(Cl)c1` (centres unmarked) [Example 62, N-(4-((3-Chloro-4-((3-fluorobenzyl)oxy)phenyl)amino)-3-cyanoquinolin-6-yl)-2-(1,2-dithiolan-3-yl)acetamide], the IC50 on EGFR WT lay in the range of 100 to 999 nM; on kinase [1] it was 1 to 99 nM; on EGFR (L858R) [5], 1 to 99 nM.

As to `N#Cc1cnc2cc(OC[C@H](O)CO)c(NC(=O)CC3CSSC3)cc2c1Nc1ccc(OCc2cccc(F)c2)c(Cl)c1` [Example 90, (R)—N-(4-((3-Chloro-4-((3-fluorobenzyl)oxy)phenyl)amino)-3-cyano-7-(2,3-dihydroxypropoxy)quinolin-6-yl)-2-(1,2-dithiolan-4-yl)acetamide], the 50% inhibitory concentration (IC50) fell in the range of 100 to 999 nM on EGFR WT; 1 to 99 nM on kinase [2]; 1 to 99 nM at kinase [1]; 1000 to 10000 nM on kinase [3]; 100 to 999 nM on kinase [4]; 1 to 99 nM at EGFR (L858R) [5].

Take `N#Cc1cnc2cc(OC[C@@H](O)CO)c(NC(=O)C3CSSC3)cc2c1Nc1ccc(OCc2cccc(F)c2)c(Cl)c1` [Example 98, (S)—N-(4-((3-Chloro-4-((3-fluorobenzyl)oxy)phenyl)amino)-3-cyano-7-(2,3dihydroxypropoxy)quinolin-6-yl)-1,2-dithiolane-4-carboxamide]: the IC50 at EGFR WT is 100 to 999 nM; on kinase [2], 1 to 99 nM; at kinase [1], 1 to 99 nM; at kinase [12], 100 to 999 nM; on kinase [3], 100 to 999 nM; at kinase [4], 1 to 99 nM. This compound also registered an IC50 on EGFR (L858R) [5] of 1 to 99 nM.

With `N#Cc1cnc2cc(OC[C@@H](O)CO)c(NC(=O)C[C@H]3CCSS3)cc2c1Nc1ccc(OCc2cccc(F)c2)c(Cl)c1` [Example 86, N-(4-((3-Chloro-4-((3-fluorobenzyl)oxy)phenyl)amino)-3-cyano-7-((S)-2,3-dihydroxypropoxy)quinolin-6-yl)-2-(1,2-dithiolan-3S-yl)acetamide], the Kd was 1 to 99 nM on EGFR WT (wild type EGFR); 1 to 99 nM at EGFR E746-A750del; over 10000 nM on EGFR L858R/T790M; 1 to 99 nM on EGFR S752-I759del; 1 to 99 nM at EGFR (L858R) [13]. Moreover, the figures for the IC50 at EGFR WT, at HER2 and at EGFR (L858R) [5] were 100 to 999 nM, 100 to 999 nM and 1 to 99 nM, respectively.

As to `N#Cc1cnc2cc(OC[C@H](O)CO)c(NC(=O)CC3CCSS3)cc2c1Nc1ccc(OCc2cccc(F)c2)c(Cl)c1` (stereo partly drawn) [Example 82, N-(4-((3-Chloro-4-((3-fluorobenzyl)oxy)phenyl)amino)-3-cyano-7-((R)-2,3-dihydroxypropoxy)quinolin-6-yl)-2-(1,2-dithiolan-3-yl)acetamide], the Kd is 1 to 99 nM at EGFR WT (wild type EGFR); 1 to 99 nM on EGFR E746-A750del; over 10000 nM at EGFR L858R/T790M; 1 to 99 nM on EGFR S752-I759del; 1 to 99 nM at EGFR (L858R) [13]. The results for the 50% inhibitory concentration (IC50) at EGFR WT, on HER2 and at EGFR (L858R) [5] were 100 to 999 nM, 100 to 999 nM and 1 to 99 nM, respectively.

`N#Cc1cnc2cc(OC[C@@H](O)CO)c(NC(=O)CC3CSSC3)cc2c1Nc1ccc(OCc2cccc(F)c2)c(Cl)c1` [Example 92, (S)—N-(4-((3-Chloro-4-((3-fluorobenzyl)oxy)phenyl)amino)-3-cyano-7-(2,3-dihydroxypropoxy)quinolin-6-yl)-2-(1,2-dithiolan-4-yl)acetamide]: the 50% inhibitory concentration (IC50) on EGFR WT lay in the range of 100 to 999 nM; on HER2 it was 100 to 999 nM; at kinase [2], 1 to 99 nM; on kinase [1], 1 to 99 nM; at kinase [12] it was 100 to 999 nM; at kinase [3], 1000 to 10000 nM. In addition, the IC50 on kinase [4] was in the range of 100 to 999 nM; on EGFR (L858R) [5] it was 1 to 99 nM. In addition, the Kd on EGFR E746-A750del and on EGFR S752-I759del was 1 to 99 nM in each case.
